{"source": "patent US20260297031A1", "about": "“HYDROXYLAMINE-BASED BCR-ABL1 INHIBITORS FOR TREATMENT OF CANCER” (University of Georgia Research Foundation, Inc., priority 2023, published 2026)", "key": {"[1]": {"system": "K562 cells", "experiment": "Cell viability assay, K562", "format": "cell-based"}, "[2]": {"system": "Molt-4 cells", "experiment": "In vitro CTG antiproliferative assay, Molt-4", "format": "cell-based", "conditions": "for IC50: Homo sapiens, Molt-4 (BCR-ABL1−), 72 h", "method": "(§1) In Vitro CTG Assay (Independently Performed By: Crown Bioscience, Taicanq, CN)\n(§2) Cells listed in the table above were initially harvested during logarithmic growth period followed by re-suspension and counting using a Vi cell counter (cell viability was measured by trypan blue exclusion assay). Cells were then diluted and 90 μL cell suspensions were added to 96-well plates. Plates were then incubated overnight in a humidified incubator at 37° C. with 5% CO2. To(Time 0) plate was then taken by 10 μL of culture medium being added to each well followed by 50 μL CellTiter-Glo® Reagent being added. The contents were then mixed for 2 min on an orbital shake to facilitate cell lysis. Next, the plate was incubated at room temperature for 10 min to stabilize luminescent signal. Blackseal black sticker was placed to the bottom of each plate and the luminescence was recorded using EnVision multi label reader. Test compounds and 10 μL of each 10× compound working solutions was added according to the plate inoculation map. Plates were then placed back into the incubator and after 72 h, 50 μL CellTiter-Glo® was added to each well. Contents were then mixed for 2 min on an orbital shaker to facilitate cell lysis. The plate then was incubated at room temperature for 10 min to stabilize luminescent signal. Blackseal black sticker was placed to the bottom of each plate and the luminescence recorded using EnVision multi label reader.\nRelative IC50 was calculated with a dose-response curve fitted using nonlinear regression model with a sigmoidal dose response on GraphPad Prism version 9.5.1. […] The formula for calculating survival rate was (n=3 replicates): […]"}, "[3]": {"experiment": "Plasma protein binding by equilibrium dialysis, rat plasma", "format": "in vitro ADME", "method": "(§3) Plasma Protein Binding by Equilibrium Dialysis (Independently Performed by Pharmaron Inc., Ninqbo, CN)\n(§4) Initially, 1 mM solutions of test compounds and the control compound (Ketoconzaole) were prepared in DMSO. After this, dialysis membranes were soaked in ultrapure water for 60 min to separate strips, followed by 20% aq. ethanol for 20 min, and finally in a dialysis buffer for 20 min. […] After this, 597 μL of blank plasma solution followed by 3 μL of the working solutions of either test compounds or control compound were added to a new plastic plate or separate plastic tube and the solutions were vortexed at 1,000 rpm for 2 min. Immediately after this, 50 μL of spiked plasma solution suspension was transferred to a 96-well plate to act as T=0 control. The remaining samples were treated in the same manner, whereby all remaining spiked plasma solutions were added to the incubator for the duration of the study.\nCells were then loaded with 120 μL of the plasma samples and dialyzed against an equal volume of dialysis buffer (PBS). […] At the end of incubation, the lid was removed and 50 μL of post-dialysis samples were removed from both buffer and plasma solution chambers into a separate 96-well plate for analysis. The plasma solutions (50 μL) were then added to the buffer samples along with an equal volume of PBS (50 μL) to the collected plasma solution samples. The plate was shaken at 1,000 rpm for 2 min and 400 μL of acetonitrile containing an appropriate internal standard was added to precipitate protein and release compound. The samples were then vortexed at 1,000 rpm for an additional 10 min followed by centrifugation at 3,220 g for 30 min. […] The samples were analyzed by LC-MS/MS and 100 μL of distilled water was added to each sample prior to analysis.\n(§5) Concentrations of test compounds and control compound in buffer and plasma solution chambers was determined and percentages of test compounds and control compound bound using the following equations (mean of n=2 replicates): […]"}, "[4]": {"experiment": "Metabolic stability in rat hepatocytes", "format": "in vitro ADME", "conditions": "rat", "method": "All calculations were carried out using Microsoft Excel. Peak areas were determined from extracted ion chromatograms."}, "[5]": {"experiment": "Aqueous solubility", "conditions": "phosphate buffer, pH 7.4, aqueous buffer", "method": "Solubility Determinations (Independently Performed by Pharmaron Inc., Ninqbo, CN)\nTest compounds and control compounds (progesterone or diclofenac) were initially prepared as 10 mM DMSO stock solutions. […] After such time, plugs and stir sticks were removed and the samples from the solubility sample plate were transferred into the filter plate. All the samples were then filtered and 5 μL of filtrate was taken and added along with 5 μL of DMSO and 490 μL of a 1:1 (v/v) mixture of H2O and acetonitrile containing internal standard (100 nM alprazolam, 200 nM Caffeine and 100 nM tolbutamide) to the plate yielding a final concentration of 3 μM. The samples were then analyzed by LC-MS and diluted according to the peak shape with ultrapure water.\nFiltrate was analyzed and quantified against a standard of known concentration using LC coupled with MS peak identification and quantitation. Solubility values of test compounds and progesterone were calculated as follows and are presented as the mean of n=2 replicates: […]"}, "[6]": {"experiment": "Metabolic stability in human liver microsomes", "format": "in vitro ADME", "conditions": "human", "method": "(§6) Metabolic Stability in Liver Microsomes (Independently Performed by Pharmaron Inc., Ninqbo, CN)\n(§7) This experiment was carried out under two separate set of conditions: i) with Cofactors (NADPH), which consisted of adding 25 μL of 10 mM NADPH to the incubations, giving a final NADPH concentration of 1 mM, and ii) without Cofactors (NADPH), which consisted of adding 25 μL of 100 mM phosphate buffer to the incubations. Under both sets of conditions, the final concentration of microsomes were 0.5 mg/mL. […] Samples were then centrifuged at 3,220 g for 40 min and aliquots of 100 μL of the supernatant were mixed with 100 μL of ultra-pure H2O and analyzed by LC-MS/MS.\n(§8) Peak areas were determined from extracted ion chromatograms. The slope value, k, was determined by linear regression of the natural logarithm of the remaining percentage of the parent drug vs incubation time curve."}, "[7]": {"experiment": "Metabolic stability in human hepatocytes", "method": "Metabolic Stability in Hepatocytes (Independently Performed by Pharmaron Inc., Ninqbo, CN)\nAfter thawing was complete, hepatocytes were transferred into a 50 mL conical tube containing thawing medium and the tube was then placed into a centrifuge and spun at 100 g for 10 min. […] Using AO/PI staining, cells were counted to determine the viable cell density. […] Subsequently, 2 μL of the 100 μM test compounds or control compound solutions was transferred into the respective wells of the 96-well non-coated plate to start the reaction. […] Aliquots of 100 μL of the supernatant were then diluted by 100 μL of ultra-pure water, and the mixture was analyzed by LC-MS/MS.\nAll calculations were carried out using Microsoft Excel. Peak areas were determined from extracted ion chromatograms. The in-vitro half-life (t1/2) of parent compound was determined by regression of the percent parent disappearance vs. time curve."}, "[8]": {"experiment": "LogD7.4 by shake flask method", "conditions": "octanol/phosphate buffer, pH 7.4", "experimental": "Test compounds and control compound (Nicardipine) were initially prepared as 10 mM solutions in DMSO and 5 μL of each sample solution was placed into one 96-well plate. […] From the octanol buffer phase, 5 μL was transferred to a new 96-well plate followed by addition of 495 μL of a 1:1 (v/v) mixture of H2O and acetonitrile to yield 100-fold diluted samples. […] Diluted samples were then vortexed for 5 min at 1,000 rpm. 50 μL of buffer samples were then transferred to a new 96-well plate, followed by addition of 450 μL of a 1:1 (v/v) mixture of H2O and acetonitrile mixture containing internal standard yielding 10-fold diluted buffer samples. Samples were vortexed for 5 min at 1,000 rpm and then all samples underwent analysis by LC-MS/MS."}, "[9]": {"experiment": "Plasma protein binding by equilibrium dialysis, human plasma", "format": "in vitro ADME", "method": "as §3, §4\nCells were then loaded with 120 μL of the plasma samples and dialyzed against an equal volume of dialysis buffer (PBS). […] At the end of incubation, the lid was removed and 50 μL of post-dialysis samples were removed from both buffer and plasma solution chambers into a separate 96-well plate for analysis. The plasma solutions (50 μL) were then added to the buffer samples along with an equal volume of PBS (50 μL) to the collected plasma solution samples. The plate was shaken at 1,000 rpm for 2 min and 400 μL of acetonitrile containing an appropriate internal standard was added to precipitate protein and release compound. The samples were then vortexed at 1,000 rpm for an additional 10 min followed by centrifugation at 3,220 g for 30 min. Supernatant (250 μL) was then added to a new 96-well plate and centrifuged again at 3,220 g for 30 min and 100 μL of this supernatant was then added to a new 96-well plate for analysis. The samples were analyzed by LC-MS/MS and 100 μL of distilled water was added to each sample prior to analysis.\nas §5"}, "[10]": {"system": "P-glycoprotein (P-gp) and/or breast cancer resistance protein (BCRP)", "conditions": "cited from earlier work"}, "[11]": {"experiment": "Metabolic stability in rat liver microsomes", "format": "in vitro ADME", "conditions": "rat", "method": "as §6, §7, §8"}, "[12]": {"target": "mutant BCR-ABL1", "experiment": "KinaseProfiler radiometric kinase assay, mutant BCR-ABL1 kinases as a group", "format": "biochemical, human", "conditions": "read-out: IC50 against (imatinib resistant / relevant) mutant BCR-ABL1 kinases; group of mutants", "excerpt": "Biochemical Human RTK Kinase Enzymatic Radiometric Assay, KinaseProfiler (Independently Performed by Eurofins Cerep SA, FR)"}, "[13]": {"system": "MEG-01 cells", "experiment": "In vitro CTG antiproliferative assay, MEG-01", "format": "cell-based", "conditions": "MEG-01, 72 h", "method": "as §1\nas §2, with “Plates were then placed back into the incubator and after 72 h, 50 μL CellTiter-Glo® was added to each well. Contents were then mixed for 2 min on an orbital shaker to facilitate cell lysis. The plate then was incubated at room temperature for 10 min to stabilize luminescent signal.” left out\nRelative IC50 was calculated with a dose-response curve fitted using nonlinear regression model with a sigmoidal dose response on GraphPad Prism version 9.5.1. […]"}, "[14]": {"system": "SUP-B15 cells", "experiment": "In vitro CTG antiproliferative assay, SUP-B15", "format": "cell-based", "conditions": "SUP-B15, 72 h", "experimental": "(§9) Cells listed in the table above were initially harvested during logarithmic growth period followed by re-suspension and counting using a Vi cell counter (cell viability was measured by trypan blue exclusion assay). Cells were then diluted and 90 μL cell suspensions were added to 96-well plates. […] To(Time 0) plate was then taken by 10 μL of culture medium being added to each well followed by 50 μL CellTiter-Glo® Reagent being added. The contents were then mixed for 2 min on an orbital shake to facilitate cell lysis. Next, the plate was incubated at room temperature for 10 min to stabilize luminescent signal. Blackseal black sticker was placed to the bottom of each plate and the luminescence was recorded using EnVision multi label reader. Test compounds and 10 μL of each 10× compound working solutions was added according to the plate inoculation map. […] Contents were then mixed for 2 min on an orbital shaker to facilitate cell lysis. The plate then was incubated at room temperature for 10 min to stabilize luminescent signal. Blackseal black sticker was placed to the bottom of each plate and the luminescence recorded using EnVision multi label reader."}, "[15]": {"system": "KU812 cells", "experiment": "In vitro CTG antiproliferative assay, KU812", "format": "cell-based", "conditions": "KU812, 72 h", "experimental": "as §9"}, "[16]": {"target": "T1, BCR-ABL1 T315I (Homo sapiens, UniProt P00519, T315I)", "T1 construct": "BCR (fusion partner, as the printed name BCR-ABL1 says)", "experiment": "KinaseProfiler radiometric kinase assay, BCR-ABL1 T315I", "format": "biochemical", "conditions": "gatekeeper mutation"}, "[17]": {"system": "CHO-K1 cells", "conditions": "+/− S9; 0.2-500 μM", "text": "High content analysis and fluorescent image analysis were used to detect micronuclei. Cyclophosphamide was the positive control in the presence of metabolic activation by rat liver S9 and mitomycin C was the positive control without metabolic activation by rat liver S9."}}, "note": "Entries after “also recorded” stand apart in the source; their conditions may differ."}
{"smiles": "COc1cc(Nc2c(C#N)cnc3cc(OCCCN4CCN(C)CC4)c(OC)cc23)c(Cl)cc1Cl", "note": "[Bosutinib, bosutinib, reference compound]", "values": [{"measurement": "antiproliferative activity, in words", "setting": "[1]", "result": "picomolar activity"}, {"measurement": "IC50", "setting": "[2]", "result": "> 2000", "unit": "nM"}, {"measurement": "plasma protein binding, in words", "setting": "[3]", "result": "comparable unbound plasma protein fraction"}, {"measurement": "fu, plasma %", "setting": "[3]; 5 μM, 360 min", "result": 7.2, "unit": "%"}, {"measurement": "stability in hepatocytes, in words", "setting": "[4]", "result": "comparably enhanced stability"}, {"measurement": "solubility kinetic at 2 h", "setting": "[5]", "result": 14, "unit": "µM"}, {"measurement": "stability in liver microsomes, in words", "setting": "[6]", "result": "significant degradation"}, {"measurement": "stability in hepatocytes, in words", "setting": "[7]", "result": "comparably enhanced stability"}, {"measurement": "remaining at 0.5 min", "setting": "[7]; hepatocytes", "result": 100, "unit": "%"}, {"measurement": "remaining at 0.5 h", "setting": "[7]; hepatocytes", "result": 79.3, "unit": "%"}, {"measurement": "remaining at 1 h", "setting": "[7]; hepatocytes", "result": 54, "unit": "%"}, {"measurement": "remaining at 2 h", "setting": "[7]; hepatocytes", "result": 20.7, "unit": "%"}, {"measurement": "logD", "setting": "[8]", "result": 3.1}, {"measurement": "plasma protein binding, in words", "setting": "[9]; human", "result": "comparable unbound plasma protein fraction"}, {"measurement": "% Bound", "setting": "[9]; human plasma, 360 min, 5 µM", "result": 95.47, "unit": "%"}, {"measurement": "% Unbound", "setting": "[9]; human plasma, 360 min, 5 µM", "result": 4.52, "unit": "%"}, {"measurement": "fu, plasma %", "setting": "[9]; human, 5 μM, 360 min", "result": 4.5, "unit": "%"}, {"measurement": "efflux transporter substrate (background)", "setting": "[10]", "result": "P-gp substrates; also recorded: potent substrates for efflux transporters"}, {"measurement": "stability in liver microsomes, in words", "setting": "[11]", "result": "significant degradation"}]}
{"smiles": "COc1cc(Nc2c(C#N)cnc3cc(OCCON4CCN(C)CC4)c(OC)cc23)c(Cl)cc1Cl", "note": "[Compound 7, 4-((2,4-dichloro-5-methoxyphenyl)amino)-6-methoxy-7-(2-((4-methylpiperazin-1-yl)oxy)ethoxy)quinoline-3-carbonitrile]", "values": [{"measurement": "IC50", "setting": "[2]", "result": "> 2000", "unit": "nM"}, {"measurement": "antiproliferative activity, in words", "setting": "[2]; Molt-4, 72 h", "result": "minimal activity"}, {"measurement": "IC50", "setting": "[12]", "result": "< 1", "unit": "nM"}, {"measurement": "antiproliferative activity, in words", "setting": "[13]", "result": "potent antiproliferative activity; also recorded: excellent antiproliferative activity"}, {"measurement": "antiproliferative activity, in words", "setting": "[14]", "result": "reduced activity"}, {"measurement": "antiproliferative activity, in words", "setting": "[15]", "result": "potent antiproliferative activity; also recorded: excellent antiproliferative activity"}, {"measurement": "activity against BCR-ABL1 T315I, in words", "setting": "[16]", "result": "slightly reduced activity"}, {"measurement": "Micronucleus result", "setting": "[17]", "result": "neither mutagenic nor genotoxic; also recorded: Negative"}]}
